ChEMBL document CHEMBL3885881, “DrugMatrix”

Species on record: Rattus norvegicus
Test: DrugMatrix - Regimen: Daily Repeat
Assay type: toxicity, organism-based, Sprague-Dawley
Parameters: regimen Daily Repeat, gender Male, age 6-8 weeks
Settings: in vivo, po, route oral GAVAGE, […]; for ABSOLUTE BASOPHIL / ABSOLUTE EOSINOPHIL / ABSOLUTE LYMPHOCYTE / ABSOLUTE MONOCYTE / ABSOLUTE SEGMENTED NEUTROPHIL / BASOPHIL / EOSINOPHIL / ERYTHROCYTE COUNT / HEMATOCRIT / HEMOGLOBIN / LEUKOCYTE COUNT / LYMPHOCYTE / MEAN CORPUSCULAR HEMOGLOBIN / MEAN CORPUSCULAR HEMOGLOBIN CONCENTRATION / MEAN CORPUSCULAR VOLUME / MONOCYTE / NEUTROPHIL / NUCLEATED RED BLOOD CELLS / PLATELET COUNT: tissue Blood; for ALANINE AMINOTRANSFERASE / ALBUMIN / ALKALINE PHOSPHATASE / ASPARTATE AMINOTRANSFERASE / BLOOD UREA NITROGEN / CARBON DIOXIDE / CHLORIDE / CHOLESTEROL / CREATINE PHOSPHOKINASE / CREATININE / GLUCOSE / LACTATE DEHYDROGENASE / LIPASE / PHOSPHORUS / POTASSIUM / SODIUM / TOTAL BILIRUBIN / TOTAL PROTEIN / URIC ACID: tissue Plasma
[1] = 0 mg/kg, 72 h, dose level Control, time 3 day
[2] = 0 mg/kg, 120 h, dose level Control, time 5 day
[3] = 72 h, dose 4.2 mg/Kg, dose level Low, time 3 day
[4] = 120 h, dose 4.2 mg/Kg, dose level Low, time 5 day

O=NN(CCCl)C(=O)NC1CCCCC1 [LOMUSTINE]
ABSOLUTE BASOPHIL [1]: 0 CELLS/uL
ABSOLUTE EOSINOPHIL [1]: 70.67 CELLS/uL
ABSOLUTE LYMPHOCYTE [1]: 12761.5 CELLS/uL
ABSOLUTE MONOCYTE [1]: 214.17 CELLS/uL
ABSOLUTE SEGMENTED NEUTROPHIL [1]: 987 CELLS/uL
BASOPHIL [1]: 0%
EOSINOPHIL [1]: 0.5%
ERYTHROCYTE COUNT [1]: 5.61 x10E6/uL
HEMATOCRIT [1]: 35.22%
HEMOGLOBIN [1]: 13.57 G/DL
LEUKOCYTE COUNT [1]: 14.03 x10E3/uL
LYMPHOCYTE [1]: 91%
MEAN CORPUSCULAR HEMOGLOBIN [1]: 24.25 pg
MEAN CORPUSCULAR HEMOGLOBIN CONCENTRATION [1]: 38.52 G/DL
MEAN CORPUSCULAR VOLUME [1]: 62.9 fL
MONOCYTE [1]: 1.5%
NEUTROPHIL [1]: 7%
NUCLEATED RED BLOOD CELLS [1]: 0 /100WBC
PLATELET COUNT [1]: 997.5 x10E3/uL
ALANINE AMINOTRANSFERASE [1]: 66.5 u/L
ALBUMIN [1]: 3.98 G/DL
ALKALINE PHOSPHATASE [1]: 350 u/L
ASPARTATE AMINOTRANSFERASE [1]: 83.83 u/L
BLOOD UREA NITROGEN [1]: 12.33 mg/dL
CARBON DIOXIDE [1]: 30.33 mmol/L
CHLORIDE [1]: 100 MEQ/L
CHOLESTEROL [1]: 75 mg/dL
CREATINE PHOSPHOKINASE [1]: 200 u/L
CREATININE [1]: 0.17 mg/dL
GLUCOSE [1]: 170 mg/dL
LACTATE DEHYDROGENASE [1]: 89.33 u/L
LIPASE [1]: 10.33 u/L
PHOSPHORUS [1]: 10.88 mg/dL
POTASSIUM [1]: 6.13 MEQ/L
SODIUM [1]: 140.53 MEQ/L
TOTAL BILIRUBIN [1]: 0.2 mg/dL
TOTAL PROTEIN [1]: 5.67 G/DL
URIC ACID [1]: 1.6 mg/dL
ABSOLUTE BASOPHIL [2]: 0 CELLS/uL
ABSOLUTE EOSINOPHIL [2]: 0 CELLS/uL
ABSOLUTE LYMPHOCYTE [2]: 9526.67 CELLS/uL
ABSOLUTE MONOCYTE [2]: 134.17 CELLS/uL
ABSOLUTE SEGMENTED NEUTROPHIL [2]: 922.5 CELLS/uL
BASOPHIL [2]: 0%
EOSINOPHIL [2]: 0%
ERYTHROCYTE COUNT [2]: 5.58 x10E6/uL
HEMATOCRIT [2]: 34.78%
HEMOGLOBIN [2]: 13.5 G/DL
LEUKOCYTE COUNT [2]: 10.58 x10E3/uL
LYMPHOCYTE [2]: 90.17%
MEAN CORPUSCULAR HEMOGLOBIN [2]: 24.27 pg
MEAN CORPUSCULAR HEMOGLOBIN CONCENTRATION [2]: 38.82 G/DL
MEAN CORPUSCULAR VOLUME [2]: 62.48 fL
MONOCYTE [2]: 1.17%
NEUTROPHIL [2]: 8.67%
NUCLEATED RED BLOOD CELLS [2]: 0.17 /100WBC
PLATELET COUNT [2]: 807.17 x10E3/uL
ALANINE AMINOTRANSFERASE [2]: 66.83 u/L
ALBUMIN [2]: 3.73 G/DL
ALKALINE PHOSPHATASE [2]: 286.17 u/L
ASPARTATE AMINOTRANSFERASE [2]: 142.33 u/L
BLOOD UREA NITROGEN [2]: 14.67 mg/dL
CARBON DIOXIDE [2]: 25.5 mmol/L
CHLORIDE [2]: 89.17 MEQ/L
CHOLESTEROL [2]: 75.17 mg/dL
CREATINE PHOSPHOKINASE [2]: 310.67 u/L
CREATININE [2]: 0.2 mg/dL
GLUCOSE [2]: 153 mg/dL
LACTATE DEHYDROGENASE [2]: 1594 u/L
LIPASE [2]: 14.83 u/L
PHOSPHORUS [2]: 11.28 mg/dL
POTASSIUM [2]: 8.46 MEQ/L
SODIUM [2]: 126.88 MEQ/L
TOTAL BILIRUBIN [2]: 0.37 mg/dL
TOTAL PROTEIN [2]: 5.53 G/DL
URIC ACID [2]: 1.52 mg/dL
ABSOLUTE BASOPHIL [3]: 0 CELLS/uL
ABSOLUTE EOSINOPHIL [3]: 32.67 CELLS/uL
ABSOLUTE LYMPHOCYTE [3]: 10341.33 CELLS/uL
ABSOLUTE MONOCYTE [3]: 0 CELLS/uL
BASOPHIL [3]: 0%
EOSINOPHIL [3]: 0.33%
ERYTHROCYTE COUNT [3]: 5.55 x10E6/uL
HEMATOCRIT [3]: 34.1%
HEMOGLOBIN [3]: 13.57 G/DL
LEUKOCYTE COUNT [3]: 10.97 x10E3/uL
LYMPHOCYTE [3]: 94.33%
MEAN CORPUSCULAR HEMOGLOBIN [3]: 24.43 pg
MEAN CORPUSCULAR HEMOGLOBIN CONCENTRATION [3]: 39.77 G/DL
MEAN CORPUSCULAR VOLUME [3]: 61.4 fL
MONOCYTE [3]: 0%
NEUTROPHIL [3]: 5.33%
NUCLEATED RED BLOOD CELLS [3]: 0 /100WBC
PLATELET COUNT [3]: 1095 x10E3/uL
ALANINE AMINOTRANSFERASE [3]: 51.33 u/L
ALBUMIN [3]: 3.83 G/DL
ALKALINE PHOSPHATASE [3]: 333.67 u/L
ASPARTATE AMINOTRANSFERASE [3]: 87.33 u/L
BLOOD UREA NITROGEN [3]: 11.33 mg/dL
CARBON DIOXIDE [3]: 25.67 mmol/L
CHLORIDE [3]: 103 MEQ/L
CHOLESTEROL [3]: 70 mg/dL
CREATINE PHOSPHOKINASE [3]: 944.67 u/L
CREATININE [3]: 0.19 mg/dL
GLUCOSE [3]: 199 mg/dL
LACTATE DEHYDROGENASE [3]: 127 u/L
LIPASE [3]: 10.33 u/L
PHOSPHORUS [3]: 11.7 mg/dL
POTASSIUM [3]: 5.37 MEQ/L
SODIUM [3]: 142.27 MEQ/L
TOTAL BILIRUBIN [3]: 0.1 mg/dL
TOTAL PROTEIN [3]: 5.5 G/DL
URIC ACID [3]: 1.6 mg/dL
ABSOLUTE BASOPHIL [4]: 0 CELLS/uL
ABSOLUTE EOSINOPHIL [4]: 32 CELLS/uL
ABSOLUTE LYMPHOCYTE [4]: 5295.33 CELLS/uL
ABSOLUTE MONOCYTE [4]: 16 CELLS/uL
ABSOLUTE SEGMENTED NEUTROPHIL [4]: 290 CELLS/uL
BASOPHIL [4]: 0%
EOSINOPHIL [4]: 0.67%
ERYTHROCYTE COUNT [4]: 5.43 x10E6/uL
HEMATOCRIT [4]: 33.87%
HEMOGLOBIN [4]: 13.53 G/DL
LEUKOCYTE COUNT [4]: 5.63 x10E3/uL
LYMPHOCYTE [4]: 94%
MEAN CORPUSCULAR HEMOGLOBIN [4]: 24.9 pg
MEAN CORPUSCULAR HEMOGLOBIN CONCENTRATION [4]: 39.97 G/DL
MEAN CORPUSCULAR VOLUME [4]: 62.43 fL
MONOCYTE [4]: 0.33%
NEUTROPHIL [4]: 5%
NUCLEATED RED BLOOD CELLS [4]: 0 /100WBC
PLATELET COUNT [4]: 1171.33 x10E3/uL
ALANINE AMINOTRANSFERASE [4]: 53.33 u/L
ALBUMIN [4]: 4.17 G/DL
ALKALINE PHOSPHATASE [4]: 336 u/L
ASPARTATE AMINOTRANSFERASE [4]: 97.33 u/L
BLOOD UREA NITROGEN [4]: 10 mg/dL
CARBON DIOXIDE [4]: 31.33 mmol/L
CHLORIDE [4]: 101 MEQ/L
CHOLESTEROL [4]: 63.33 mg/dL
CREATINE PHOSPHOKINASE [4]: 631.67 u/L
CREATININE [4]: 0.13 mg/dL
GLUCOSE [4]: 157 mg/dL
LACTATE DEHYDROGENASE [4]: 132 u/L
LIPASE [4]: 11 u/L
PHOSPHORUS [4]: 10.57 mg/dL
POTASSIUM [4]: 5.78 MEQ/L
SODIUM [4]: 147.05 MEQ/L
TOTAL BILIRUBIN [4]: 0.13 mg/dL
TOTAL PROTEIN [4]: 5.93 G/DL
URIC ACID [4]: 0.77 mg/dL
